According to publication PMC10996005, “Identification and Development of Cyclic Peptide Inhibitors of Hypoxia Inducible Factors 1 and 2 That Disrupt Hypoxia-Response Signaling in Cancer Cells” (Journal of the American Chemical Society, 2024):
Where a SMILES comes first, the peptide text is derived from it. [ ]: non-standard residue; d: D form. Phe(4-NO2) = N[C@@H](Cc1ccc([N+](=O)[O-])cc1)C(=O)O; Bpa = N[C@@H](Cc1ccc(C(=O)c2ccccc2)cc1)C(=O)O

Columns and labels:
HIF-1α PAS-B domain = target: T1, HIF-1α PAS-B domain (Homo sapiens, UniProt Q16665); experiment: MST binding to the PAS-B domain of HIF-1α; details: MST; mean ± SEM, n = 2 (n = 1 for most C1 analogues, n = 3 in Figure S2); read-out: KD for HIF-1α PAS-B
T1 construct: made in house
Experimental: (§1) All reagents were purchased from Fisher Scientific or Sigma Aldrich UK unless specified otherwise.
(§2) Restriction enzymes and microbiology reagents were purchased from New England Biolabs Inc., Fisher Scientific (UK) or Promega (UK) and were used as directed by the manufacturer. Primers and oligonucleotides were synthesised by Integrated DNA Technologies (UK). DNA sequencing was carried out by Eurofins MWG Operon (Germany).
(§3) Construction of the RTHS and SICLOPPS library, screening, purification of recombinant HIF proteins, and the PLA was conducted as previously described in Miranda et al., J. Am. Chem. Soc., 2013, 135(28); […]
(§4) Protein labelling with MST dye
(§5) Protein was buffer exchanged from storage buffer into labelling buffer (0.1 M NaHCO3, pH 8.5) using a PD spintrap G-25 column (GE healthcare). The protein concentration was then adjusted to 20 µM.
(§6) The commercially sourced MST dye (NanoTemper) was prepared as a 470 µM solution in DMSO, which was then further diluted to 60 µM using labelling buffer. To the protein solution was added an equal volume of dye solution, and the labelling reaction was left for 1 hour in the dark at room temperature.
(§7) The labelled protein was separated from unreacted dye by elution through a PD minitrap G-25 column (GE healthcare). Labelled protein was then aliquoted and stored at -80 °C. Extent of labelling was measured by the absorbance obtained using the UV-vis mode on a NanoDrop ND-1000 Spectrophotometer (NanoDrop Technologies, USA).
(§8) Labelled protein was thawed on ice and diluted to 50 nM in assay buffer containing 50 mM Tris pH 8.0, 150 mM NaCl, 5% (v/v) glycerol, 1 mM TCEP and 0.05% TWEEN-20. The protein solution was then centrifuged at 12000 rpm for 15 minutes at 4 °C and left on ice. Compounds were prepared and serially diluted in DMSO at 10x assay concentration, before diluting to 2x assay concentration in assay buffer.
(§9) The 2x compound solutions were then mixed 1:1 (v/v) with 50 nM labelled protein solution and left to incubate for 1 hour at room temperature. Solutions were then loaded into Monolith NT.115 Premium Capillaries (NanoTemper) and placed in the sample tray. MST experiments were carried out

HIF-2α PAS-B domain = target: T2, HIF-2α PAS-B domain (Homo sapiens, UniProt Q99814); experiment: MST binding to the PAS-B domain of HIF-2α; details: MST; mean (n = 2) ± SEM
T2 construct: made in house
Experimental: as §1, §2, §3, §4, §5, §6, §7, §8, §9

[1] = system: CAIX and VEGF genes in Panc-1 cells; experiment: qPCR of hypoxia-response genes in Panc-1 cells; assay type: cell-based; details: hypoxic Panc-1 cells, 2 μM
Experimental: (§10) The effect of our lead inhibitor on hypoxia-response signaling was measured by qPCR in cancer cell lines. Cells were treated with either 2 μM of an analogue of the HIF-2-specific inhibitor belzutifan, PT2399 (control), or 50 μM of cyclo-CRLII(4-iodo)F, incubated in hypoxia for […], and the levels of the hypoxia-response genes CAIX([41],[42]) and VEGF([43]) were measured by qPCR. We observed a 51% drop in CAIX transcription and a 43% drop in VEGF transcription in hypoxic MCF-7 (breast cancer) cells treated with 50 μM of cyclo-CRLII(4-iodo)F versus hypoxic MCF-7 cells treated with DMSO only (Figure 6e). […] We also observed a 49% drop in CAIX expression in hypoxic HeLa (cervical cancer) cells treated with cyclo-CRLII(4-iodo)F (Figure S9b). […] We observed a 35% drop in HIF-2-driven VEGF transcription in 786-O cells treated with 50 μM of cyclo-CRLII(4-iodo)F compared to a 50% decrease in 786-O cells treated with PT2399. […]
(§11) Realtime PCR (qPCR) Assay
(§12) Cells were plated on 6cm dishes at 80% confluency and incubated overnight under normoxic conditions. The cells were then treated with compound and incubated for 18 hours in hypoxic conditions. After treatment, the cells were washed with PBS and lysed under hypoxic conditions. The total RNA was extracted from the cells using a commercial RNA extraction kit (Fisher Scientific) following the manufacturer's instructions. A commercial reverse transcription kit (Promega) was used to generate cDNA. The MyTaq™ Mix master mix and appropriate primers targeting CAIX and VEGF were used to perform the qPCR reaction using a qPCR machine (Bio-Rad).

VEGF gene in 786-O cells = experiment: qPCR of HIF-2-driven VEGF in 786-O cells; assay type: cell-based; details: 2 μM
Experimental: as §10, §11
as §12, with “A commercial reverse transcription kit (Promega) was used to generate cDNA. The MyTaq™ Mix master mix and appropriate primers targeting CAIX and VEGF were used to perform the qPCR reaction using a qPCR machine (Bio-Rad).” left out

[2] = system: CAIX and VEGF genes in MCF-7 cells; experiment: qPCR of hypoxia-response genes in MCF-7 cells; assay type: cell-based; details: hypoxic MCF-7 cells, 2 μM
Experimental: as §10, §11, §12

[3] = system: HIF-driven expression of YFP in T-REx-293 reporter cell line; experiment: HRE-YFP reporter assay in hypoxia; assay type: cell-based, human; details: T-Rex-293 HRE-YFP reporter
Source text: Following in vitro characterization and optimization of binding, we next assessed the effect of our cyclic peptides in mammalian cells. A cell line with a stably integrated reporter was constructed, in which the expression of yellow fluorescent protein (YFP) was placed under the control of a HRE. Thus, hypoxia would be expected to increase YFP expression (and subsequent fluorescence) in these cells, whereas treatment with a cell-permeable HIF inhibitor would be expected to reduce this fluorescence signal. A fusion cassette was designed containing the YFP gene preceded by three copies of the HRE sequence. This cassette was stably integrated into T-REx-293 cells as previously described.[12] […] The effect of this compound on the viability of T-Rex-293 was assessed with no effect observed at doses up to 75 μM (Figure S9a). […] It should be noted that the relative activity of each compound in this assay will be a combination of its cell permeability and HIF-inhibiting activity. […] We therefore continued to further characterize the cell activity of the 4-iodo-phenylalanine derivative. […]
Generation of HRE-eYFP integrated cell line
The Flp-In System (Fisher) was used to generate a constitutive expression cell line that expresses eYFP under the control of the VEGF HRE. The coding sequence of the yellow fluorescent protein (eYFP) was cloned downstream of the VEGF HRE sequence in the pcDNA5 plasmid, such that the entire cassette was under the regulation of a Tet-On gene expression system. The plasmid was transfected into a human embryonic kidney cell line (Flp-In™-293) and integrated using the manufacturer’s protocol.
Activity Assessment using Flp-In-HRE-eYFP cell line
The Flp-In-HRE-eYFP cells were plated on 24-well plates at 80% confluency and incubated overnight under normoxic conditions. The cells were then treated with different concentrations of compound and incubated for 18 hours under hypoxic conditions. After treatment, the cells were washed with PBS and lysed to extract the total cellular protein. The cell extract was cold centrifuged for 20 minutes at 14,000 RPM. An equal amount of the supernatant from each treatment was plated on a 96-well plate, and the emission of eYFP was measured using a microplate reader. […]

[4] = system: RCC associated with VHL disease; parameters: method as in PMID 34453144; details: phase 2 clinical trial, all partial responses; cited from earlier work

T2 sequence (Q99814 240-350 limits assumed): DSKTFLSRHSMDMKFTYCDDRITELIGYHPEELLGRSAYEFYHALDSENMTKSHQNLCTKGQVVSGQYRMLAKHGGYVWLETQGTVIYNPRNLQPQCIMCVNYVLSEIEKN
T1 sequence (Q16665 238-349 limits assumed): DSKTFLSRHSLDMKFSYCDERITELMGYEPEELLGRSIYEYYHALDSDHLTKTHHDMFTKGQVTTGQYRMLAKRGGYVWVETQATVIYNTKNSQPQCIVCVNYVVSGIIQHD

Row | Kd (HIF-1α PAS-B domain) | Kd (HIF-2α PAS-B domain) | SMILES | also measured
1 | 30.6 ± 0.3 µM | 12.5 ± 0.4 µM | CC[C@H](C)[C@@H]1NC(=O)[C@H](CC(C)C)NC(=O)[C@H](C)NC(=O)[C@H](CS)NC(=O)[C@H](Cc2ccccc2)NC(=O)[C@H]([C@@H](C)CC)NC1=O [cyclo-CALIIF] (cyclo(ALIIFC)) | 
2 |  |  | N#Cc1cc(F)cc(Oc2ccc(S(=O)(=O)C(F)F)c3c2CC(F)(F)[C@H]3O)c1 [PT2399, reference compound] | drop in CAIX transcription [1]: 23%; drop in VEGF transcription [1]: 53%; decrease in HIF-2-driven VEGF transcription (VEGF gene in 786-O cells): 50%; inhibition of hypoxia-driven expression of CAIX [2]: did not inhibit; inhibition of hypoxia-driven expression of VEGF [2]: did not inhibit
3 | 3.3 ± 0.1 µM |  | CC[C@H](C)[C@@H]1NC(=O)[C@H](CC(C)C)NC(=O)[C@H](CCCNC(=N)N)NC(=O)[C@H](CS)NC(=O)[C@H](Cc2ccc([N+](=O)[O-])cc2)NC(=O)[C@H]([C@@H](C)CC)NC1=O [NO2, cyclo-CRLII(4-NO2)F] (cyclo(CRLII[Phe(4-NO2)])) | relative activity among the 9 most potent cyclo-CRLIIF derivatives on YFP expression [3]: least active
4 |  |  | CS(=O)(=O)c1ccc(Oc2cc(F)cc(C#N)c2)c2c1[C@H](O)[C@H](F)[C@@H]2F [belzutifan] | patients responded [4]: 49%
5 | > 100 µM | > 100 µM | CC[C@H](C)[C@@H]1NC(=O)[C@H](CC(C)C)NC(=O)[C@H](CCCNC(=N)N)NC(=O)[C@H](C)NC(=O)[C@H](Cc2ccccc2)NC(=O)[C@H]([C@@H](C)CC)NC1=O [cyclo-ARLIIF] (cyclo(ARLIIF)) | 
6 |  |  | CC[C@H](C)[C@@H]1NC(=O)[C@H](CC(C)C)NC(=O)[C@H](CCCNC(=N)N)NC(=O)[C@H](CS)NC(=O)[C@H](Cc2ccc(C(=O)c3ccccc3)cc2)NC(=O)[C@H]([C@@H](C)CC)NC1=O [(4-Bz)F, cyclo-CRLII(4-Bz)F] (cyclo([Bpa]CRLII)) | relative activity among the 9 most potent cyclo-CRLIIF derivatives on YFP expression [3]: most active
7 | 52.7 ± 5.6 µM | 52.3 ± 6.6 µM | CC[C@H](C)[C@@H]1NC(=O)[C@H](C)NC(=O)[C@H](CCCNC(=N)N)NC(=O)[C@H](CS)NC(=O)[C@H](Cc2ccccc2)NC(=O)[C@H]([C@@H](C)CC)NC1=O [cyclo-CRAIIF] (cyclo(CRAIIF)) | 
8 | > 100 µM | > 100 µM | CC[C@H](C)[C@@H]1NC(=O)[C@H](CC(C)C)NC(=O)[C@H](CCCNC(=N)N)NC(=O)[C@H](CS)NC(=O)[C@H](Cc2ccccc2)NC(=O)[C@H](C)NC1=O [cyclo-CRLIAF] | 
